The results in this text go back to patent US11919901B2 (Syndax Pharmaceuticals, Inc., priority 2021, dated 2024).

In one data set the test system is MV4-11 cells. The data set can be described thus: Cell proliferation assay MV4;11 (CellTiter-Glo, 72 hours). It counts as cell-based. Particulars: Homo sapiens; MV4;11 leukemia cell line, 72 hours; read-out: MV4; 11 IC50. The method, then: Compounds were evaluated for its capacity to inhibit the proliferation of the MLLr leukemia cell line MV4-11 that harbors an MLL1-AF4 fusion protein. MV4-11 cells were cultured for 72 hours with limiting dilutions of compounds and viability was measured using CellTiter-Glo.
Compounds were dissolved to obtain as 10 mM solution in DMSO. The stock was diluted 1:5 to the top concentration of 2 mM in 100% DMSO. For IC50 determination, serial 1:3.16 dilutions were prepared in 100% DMSO by diluting 20 μL into 43.5 μL of DMSO for 8 concentrations. Each prepared DMSO solution were further diluted 1:500 in the cell culture media to obtain the 2× dosing solutions. The final concentrations of tested compounds in the cell culture media ranged from 0.632 nM to 2000 nM.
MV4-11 cells were cultured in IMDM with 10% FBS and 1× Penicillin-Streptomycin at 5% CO2 and 37° C. A cell suspension was prepared containing 15,000 cells/ml in the culture medium and 100 μL of this suspension was added per well to a 96-well cell culture plate. Then, 100 μL of 2× dosing media containing test compounds were added bringing the total volume to 200 μL. These cells were cultured for 72 hours at 37° C. and 5% CO2 in a humidified incubator.
After 72 hours, the cultured cells were mixed and 100p L was transferred to a 96-well black plate. Cell Titer Glo (100 μl) was then added to this plate. The plate was mixed with shaking for 15 mins at RT, the luminescence was then measured using Tecan Spark 20M spectrophotometer. Cell Viability (%) was determined by RLU of test/RLU average vehicle control*100 and % max inhibition was determined by 100−(% cell viability remaining at the top concentration of compound).
(In general: Cellular ATP, detected with luciferase, serves as a proxy for viable cell number.)

The next data set addresses Menin-MLL (Homo sapiens (Human), UniProt O00255). The data set can be described thus: Determination of binding constants (Ki) to Menin-MLL (HTRF).
In the next data set the target is hERG (Homo sapiens (Human), UniProt Q12809). The data set can be described thus: Patch clamp assay (hERG tail currents, whole-cell). It counts as cell-based. Particulars: hERG transfected HEK 293 cells; for hERG % Remaining 30 μM: 30 μM compound.
Chain of hERG (Q12809 whole entry): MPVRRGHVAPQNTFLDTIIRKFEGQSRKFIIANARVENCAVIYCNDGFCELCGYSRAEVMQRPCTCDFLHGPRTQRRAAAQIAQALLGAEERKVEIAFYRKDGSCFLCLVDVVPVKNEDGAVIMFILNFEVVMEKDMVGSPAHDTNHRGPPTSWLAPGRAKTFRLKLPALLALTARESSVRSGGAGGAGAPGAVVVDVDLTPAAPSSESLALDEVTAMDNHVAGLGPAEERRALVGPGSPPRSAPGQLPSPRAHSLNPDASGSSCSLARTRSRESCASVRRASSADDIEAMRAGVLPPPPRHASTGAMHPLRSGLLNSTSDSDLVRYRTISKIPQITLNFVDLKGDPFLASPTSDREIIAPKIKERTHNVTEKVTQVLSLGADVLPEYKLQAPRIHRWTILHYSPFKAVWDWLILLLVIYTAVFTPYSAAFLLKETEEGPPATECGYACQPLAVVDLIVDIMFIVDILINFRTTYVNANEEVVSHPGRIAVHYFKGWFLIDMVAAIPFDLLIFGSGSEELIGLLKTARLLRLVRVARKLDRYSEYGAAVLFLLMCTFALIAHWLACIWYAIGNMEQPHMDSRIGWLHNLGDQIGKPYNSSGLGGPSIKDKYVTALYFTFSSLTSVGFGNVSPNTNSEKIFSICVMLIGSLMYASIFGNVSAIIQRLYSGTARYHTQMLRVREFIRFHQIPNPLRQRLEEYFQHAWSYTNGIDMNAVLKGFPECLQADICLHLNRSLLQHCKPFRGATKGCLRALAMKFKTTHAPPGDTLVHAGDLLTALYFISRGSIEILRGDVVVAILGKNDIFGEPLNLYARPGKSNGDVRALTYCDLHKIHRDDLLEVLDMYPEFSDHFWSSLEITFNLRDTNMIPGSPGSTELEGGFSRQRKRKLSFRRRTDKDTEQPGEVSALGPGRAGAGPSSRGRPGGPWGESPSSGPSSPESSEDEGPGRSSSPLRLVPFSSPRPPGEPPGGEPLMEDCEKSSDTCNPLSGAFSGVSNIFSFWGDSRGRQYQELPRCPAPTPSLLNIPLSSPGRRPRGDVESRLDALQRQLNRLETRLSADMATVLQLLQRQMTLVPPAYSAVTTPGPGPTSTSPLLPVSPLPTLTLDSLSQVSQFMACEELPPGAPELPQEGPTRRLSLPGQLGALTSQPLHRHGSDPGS
Setting [1] is: HTRF, 0.25 nM H-FL-Menin, 3.2 nM FITC-MLL-4-43, 24 hr incubation, read-out: Menin-MLL Ki HTRF Assay: Ki.

pEC50, pIC50, pKi: −log10 of the molar value. Where two headings read alike, the source gives them in different places.

Chain of Menin-MLL (O00255 whole entry): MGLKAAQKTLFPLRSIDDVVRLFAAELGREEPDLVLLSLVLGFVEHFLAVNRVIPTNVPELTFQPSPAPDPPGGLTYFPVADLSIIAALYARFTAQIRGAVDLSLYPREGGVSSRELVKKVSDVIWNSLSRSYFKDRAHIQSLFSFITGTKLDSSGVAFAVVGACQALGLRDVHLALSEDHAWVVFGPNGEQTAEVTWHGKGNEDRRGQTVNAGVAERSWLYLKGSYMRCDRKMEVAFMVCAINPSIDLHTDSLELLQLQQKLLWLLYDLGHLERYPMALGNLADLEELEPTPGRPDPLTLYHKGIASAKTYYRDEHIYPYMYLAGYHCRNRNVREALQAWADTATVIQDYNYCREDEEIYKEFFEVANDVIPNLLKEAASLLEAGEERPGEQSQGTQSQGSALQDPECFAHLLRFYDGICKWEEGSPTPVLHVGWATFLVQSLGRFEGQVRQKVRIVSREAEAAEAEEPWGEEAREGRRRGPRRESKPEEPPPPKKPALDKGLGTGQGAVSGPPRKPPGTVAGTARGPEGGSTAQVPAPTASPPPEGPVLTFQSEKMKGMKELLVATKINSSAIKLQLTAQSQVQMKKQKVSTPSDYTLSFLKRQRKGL
Experimental for hERG: The 35 mm culture dishes upon which cells were seeded at a density allowing single cells to be recorded were placed on the dish holder of the microscope and continuously perfused (at approximately 1 mL/min) with the bath solution described in section 4.6. All solutions applied to cells including the pipette solution were maintained at room temperature (19° C. to 30° C.). After formation of a Gigaohm seal between the patch electrodes and individual hERG stably transfected HEK 293 cells (pipette resistance range: 2.0 MΩ2 to 7.0 MΩ; seal resistance range: >1GΩ) the cell membrane across the pipette tip was ruptured to assure electrical access to the cell interior (whole-cell patch-configuration). In case the quality of the seal was poor, the process of seal formation was repeated with a different cell and a new pipette. As soon as a stable seal could be established, hERG outward tail currents were measured upon depolarization of the cell membrane to +20 mV for 2s (activation of channels) from a holding potential of −80 mV and upon subsequent repolarization to −40 mV for 3 s. This voltage protocol (as shown below) was run at least 10 times at intervals of 10 s. If current density was judged to be too low for measurement, another cell was recorded.
During wash-in of the test item the voltage protocol indicated above was run continuously again at 10 s intervals until the steady-state level of block was reached.
The IC50 was determined by fitting the dose response curve with a 2-parameter logistic function (amax=100%).

For the compound `CNS(=O)(=O)N[C@H]1CC[C@H](CN2CCC3(CC2)CN(c2ncncc2Oc2ccc(F)cc2C(=O)N(C(C)C)C2CC2)C3)OC1` (stereo in doubt) [Example 146, N-Cyclopropyl-5-fluoro-N-isopropyl-2-((4-(7-(((2R,5S)-5-((N-methylsulfamoyl)amino)tetrahydro-2H-pyran-2-yl)methyl)-2,7-diazaspiro[3.5]nonan-2-yl)pyrimidin-5-yl)oxy)benzamide], the pIC50 in the data set with MV4-11 cells was > 7.00. On the same count and under the same terms, for `CCNS(=O)(=O)N[C@H]1CC[C@H](CN2CCC3(CC2)CN(c2ncnnc2Oc2ccc(F)cc2C(=O)N(CC(F)(F)F)C(C)C)C3)OC1` (stereo in doubt) [Example 193, 2-((5-(7-(((2R,5S)-5-((N-Ethylsulfamoyl)amino)tetrahydro-2H-pyran-2-yl)methyl)-2,7-diazaspiro[3.5]nonan-2-yl)-1,2,4-triazin-6-yl)oxy)-5-fluoro-N-isopropyl-N-(2,2,2-trifluoroethyl)benzamide] the value was > 7.00; for `CC(C)N(CC(F)(F)F)C(=O)c1cc(F)ccc1Oc1nncnc1N1CC2(CCN(C[C@H]3CC[C@H](NS(=O)(=O)N4CCC4)CO3)CC2)C1` (stereo in doubt) [Example 194, 2-((5-(7-(((2R,5S)-5-(Azetidine-1-sulfonamido)tetrahydro-2H-pyran-2-yl)methyl)-2,7-diazaspiro[3.5]nonan-2-yl)-1,2,4-triazin-6-yl)oxy)-5-fluoro-N-isopropyl-N-(2,2,2-trifluoroethyl)benzamide], > 7.00.

A word on the pKi: it is the negative decadic logarithm of the Ki, by convention in mol/L. Turning to `CC(C)N(C(=O)c1cc(F)ccc1Oc1cncnc1N1CC2(CCN(C[C@@H]3CC[C@@H](NS(=O)(=O)N4CC5(CCOC5)C4)CO3)CC2)C1)C(C)C` [Compound 223, 2-((4-(7-(((2S,5R)-5-(6-Oxa-2-azaspiro[3.4]octane-2-sulfonamido)tetrahydro-2H-pyran-2-yl)methyl)-2,7-diazaspiro[3.5]nonan-2-yl)pyrimidin-5-yl)oxy)-5-fluoro-N,N-diisopropylbenzamide], the pKi at Menin-MLL (setting [1]) was > 9.00. Moreover, the “hERG % Remaining 30 μM” value on hERG is given as “+++ (“+++” means ≥66%)”. As to `CC(C)N(C(=O)c1cc(F)ccc1Oc1cncnc1N1CC2(CCN(C[C@@H]3CC[C@@H](NS(=O)(=O)N4CC5COCC5C4)CO3)CC2)C1)C(C)C` (stereo partly drawn) [Compound 224, 5-Fluoro-2-((4-(7-(((2S,5R)-5-((hexahydro-1H-furo[3,4-c]pyrrole)-5-sulfonamido)tetrahydro-2H-pyran-2-yl)methyl)-2,7-diazaspiro[3.5]nonan-2-yl)pyrimidin-5-yl)oxy)-N,N-diisopropylbenzamide], at Menin-MLL (setting [1]), the negative-log Ki (pKi) was > 9.00. In addition, the “hERG % Remaining 30 μM” value on hERG was “+++ (“+++” means ≥66%)”. As for `CCS(=O)(=NC)N[C@@H]1CC[C@@H](CN2CCC3(CC2)CN(c2ncncc2Oc2ccc(F)cc2C(=O)N(C(C)C)C(C)C)C3)OC1` (stereo partly drawn) [Compound 231, 5-Fluoro-N,N-diisopropyl-2-((4-(7-(((2S,5R)-5-(N′-methylethylsulfonoamidimidamido)tetrahydro-2H-pyran-2-yl)methyl)-2,7-diazaspiro[3.5]nonan-2-yl)pyrimidin-5-yl)oxy)benzamide], at Menin-MLL, the pKi is > 9.00. Also, the “hERG % Remaining 30 μM” value on hERG is on record as “+++ (“+++” means ≥66%)”. With `CC(C)N(CC(F)F)C(=O)c1cc(F)ccc1Oc1cncnc1N1CC2(CCN(C[C@@H]3CC[C@@H](NS(=O)(=O)NCC(F)F)CO3)CC2)C1` [Compound 235, N-(2,2-Difluoroethyl)-2-((4-(7-(((2S,5R)-5-((N-(2,2-difluoroethyl)sulfamoyl)amino)tetrahydro-2H-pyran-2-yl)methyl)-2,7-diazaspiro[3.5]nonan-2-yl)pyrimidin-5-yl)oxy)-5-fluoro-N-isopropylbenzamide], the pKi at Menin-MLL is > 9.00. Moreover, the “hERG % Remaining 30 μM” value at hERG is “+++ (“+++” means ≥66%)”. Regarding `CC(C)N(CC(F)F)C(=O)c1cc(F)ccc1Oc1cncnc1N1CC2(CCN(C[C@@H]3CC[C@@H](NS(=O)(=O)N(C)CCO)CO3)CC2)C1` [Compound 239, N-(2,2-difluoroethyl)-5-fluoro-2-((4-(7-(((2S,5R)-5-((N-(2-hydroxyethyl)-N-methylsulfamoyl)amino)tetrahydro-2H-pyran-2-yl)methyl)-2,7-diazaspiro[3.5]nonan-2-yl)pyrimidin-5-yl)oxy)-N-isopropylbenzamide], at Menin-MLL (setting [1]), the pKi was > 9.00. The “hERG % Remaining 30 μM” value on hERG is listed as “+++ (“+++” means ≥66%)”.

As to `CC(C)N(CC(F)F)C(=O)c1cc(F)ccc1Oc1cncnc1N1CC2(CCN(C[C@@H]3CC[C@@H](NS(N)(=O)=O)CO3)CC2)C1` [Compound 240, N-(2,2-Difluoroethyl)-5-fluoro-N-isopropyl-2-((4-(7-(((2S,5R)-5-(sulfamoylamino)tetrahydro-2H-pyran-2-yl)methyl)-2,7-diazaspiro[3.5]nonan-2-yl)pyrimidin-5-yl)oxy)benzamide], the negative-log Ki (pKi) at Menin-MLL (setting [1]) was > 9.00. In addition, at hERG, the “hERG % Remaining 30 μM” value is reported as “+++ (“+++” means ≥66%)” and the pIC50 is ≤ 4.30. Regarding `CC(C)N(CC(F)F)C(=O)c1cc(F)ccc1Oc1cncnc1N1CC2(CCN(C[C@@H]3CC[C@@H](NS(=O)(=O)c4nn(C)cc4F)CO3)CC2)C1` [Compound 241, N-(2,2-Difluoroethyl)-5-fluoro-2-((4-(7-(((2S,5R)-5-((4-fluoro-1-methyl-1H-pyrazole)-3-sulfonamido)tetrahydro-2H-pyran-2-yl)methyl)-2,7-diazaspiro[3.5]nonan-2-yl)pyrimidin-5-yl)oxy)-N-isopropylbenzamide], the pKi on Menin-MLL (setting [1]) is > 9.00. Further, at hERG, the “hERG % Remaining 30 μM” value is “++ (“++” means ≥33% and <66%)”. As for `CC(C)N(C(=O)c1cc(F)ccc1Oc1cncnc1N1CC2(CCN(C[C@@H]3CC[C@@H](NS(=O)(=O)N4CCC4)CO3)CC2)C1)C1COC1` [Compound 248, 2-((4-(7-(((2S,5R)-5-(Azetidine-1-sulfonamido)tetrahydro-2H-pyran-2-yl)methyl)-2,7-diazaspiro[3.5]nonan-2-yl)pyrimidin-5-yl)oxy)-5-fluoro-N-isopropyl-N-(oxetan-3-yl)benzamide], the negative logarithm of the Ki (pKi) on Menin-MLL (setting [1]) is > 9.00. Besides, the “hERG % Remaining 30 μM” value on hERG is reported as “+++ (“+++” means ≥66%)”. Regarding `CC(C)N(C(=O)c1cc(F)ccc1Oc1cncnc1N1CC2(CCN(C[C@@H]3CC[C@@H](NS(=O)(=O)N(C)C)CO3)CC2)C1)C1COC1` [Compound 249, 2-((4-(7-(((2S,5R)-5-((N,N-Dimethylsulfamoyl)amino)tetrahydro-2H-pyran-2-yl)methyl)-2,7-diazaspiro[3.5]nonan-2-yl)pyrimidin-5-yl)oxy)-5-fluoro-N-isopropyl-N-(oxetan-3-yl)benzamide], at Menin-MLL (setting [1]), the negative logarithm of the Ki (pKi) is > 9.00. Besides, at hERG, the “hERG % Remaining 30 μM” value was “+++ (“+++” means ≥66%)”. The pEC50 is −log10 of the EC50, conventionally taken in molar units. A higher pEC50 goes with a small EC50. In the case of `CCS(=O)(=O)N[C@@H]1CC[C@@H](CN2CCC3(CC2)CN(c2ncncc2Oc2ccc(F)cc2C(=O)N(C(C)C)[C@@H]2CC[C@@H]2O)C3)OC1` [Compound 258, 2-((4-(7-(((2S,5R)-5-(Ethylsulfonamido)tetrahydro-2H-pyran-2-yl)methyl)-2,7-diazaspiro[3.5]nonan-2-yl)pyrimidin-5-yl)oxy)-5-fluoro-N-((1R,2S)-2-hydroxycyclobutyl)-N-isopropylbenzamide], at Menin-MLL (HTRF, 0.25 nM H-FL-Menin, 3.2 nM FITC-MLL-4-43, 24 hr incubation), the pEC50 was > 7.30. Besides, at Menin-MLL (setting [1]), the pKi is > 9.00. The “hERG % Remaining 10 μM” value on hERG (10 μM compound) is listed as “+++ (“+++” means ≥66%)”. For the same compound, the “hERG % Remaining 30 μM” value on hERG was “++ (“++” means ≥33% and <66%)”. With `CCN(C(=O)c1cc(F)ccc1Oc1cncnc1N1CC2(CCN(C[C@@H]3CC[C@@H](NS(C)(=O)=O)CO3)CC2)C1)C(C)C` [Example 1, N-Ethyl-5-fluoro-N-isopropyl-2-((4-(7-(((2S,5R)-5-(methylsulfonamido)tetrahydro-2H-pyran-2-yl)methyl)-2,7-diazaspiro[3.5]nonan-2-yl)pyrimidin-5-yl)oxy)benzamide], the pIC50 with MV4-11 cells was > 7.00. `CCN(C(=O)c1cc(F)ccc1Oc1cncnc1N1CC2(CCN(C[C@@H]3CC[C@@H](NS(=O)(=O)CC)CO3)CC2)C1)C(C)C` [Example 2, N-Ethyl-2-((4-(7-(((2S,5R)-5-(ethylsulfonamido)tetrahydro-2H-pyran-2-yl)methyl)-2,7-diazaspiro[3.5]nonan-2-yl)pyrimidin-5-yl)oxy)-5-fluoro-N-isopropylbenzamide]: in the data set on MV4-11 cells, the pIC50 was > 7.00. Same read-out and setting: as for `CCN(C(=O)c1cc(F)ccc1Oc1cncnc1N1CC2(CCN(C[C@@H]3CC[C@@H](NS(=O)(=O)C(C)C)CO3)CC2)C1)C(C)C` [Example 3, N-Ethyl-5-fluoro-N-isopropyl-2-((4-(7-(((2S,5R)-5-((1-methylethyl)sulfonamido)tetrahydro-2H-pyran-2-yl)methyl)-2,7-diazaspiro[3.5]nonan-2-yl)pyrimidin-5-yl)oxy)benzamide], the figure is > 7.00.
